Data from patent US20060069079A1, “Stable amorphous cefdinir” (priority 2004, published 2006).

How the values were obtained:
Assay type in all cases: physicochemical
[1] = HPLC potency of the isolated amorphous material, before and after drying
Description: For High Pressure Liquid Chromatography (HPLC), the sample isolated by evaporating methanol was analyzed by HPLC for potency. […] By careful drying at lower temperatures, the potency loss could be alleviated.
For the HPLC analysis, the sample isolated by evaporating methanol was analyzed by HPLC for potency. […] When the sample was re-analyzed after drying in the TGA at 25° C. or 70° C., the potency remained at 99 wt %. Therefore, the presence of Eudragit EPO improved the stability of the amorphous phase.

[2] = Thermogravimetric analysis (TGA), onset of degradation on heating; details: heated at 10° C./min from 25° C.
Description: Thermogravimetric analysis (TGA) was performed in TA Instruments TG2950 (TA Instruments, New Castle, Del.). The samples were scanned at 10° C./minute with a dry nitrogen purge at 60 mL/minute.
For TGA analysis, the sample was heated at 10° C./min from 25° C. to 150° C. The air dried amorphous material contained about 5 wt % residual solvent. Since the TGA data also indicated degradation begins at 90° C., the residual solvent can be removed by holding the sample in the TGA for 1 hour at 25° C. (FIG. 5). At the end of the hour, the weight reached a constant value and the sample had lost 5% of its weight.
For the TGA analysis, the sample was heated at 10° C./min from 25° C. to 150° C. The air dried amorphous material contained some (˜10 wt %) residual methanol (FIG. 10). […] (FIG. 11). At the end of the hour, the weight reached a constant value and the sample had lost 10% of its weight.
For the TGA analysis, the sample was heated at 10° C./min from 25° C. to 200° C. The air dried amorphous material contained some (˜7 wt %) residual methanol. […] (FIG. 16). At the end of the hour, the weight reached a constant value and the sample had lost 7% of its weight.

[3] = Physical stability of the amorphous material isolated by evaporating a methanolic solution
From the text: Amorphous Cefdinir was isolated by evaporating a methanolic solution.
Stable amorphous Cefdinir with Eudragit EPO was made and isolated by evaporating a methanolic solution.
Amorphous cefdinir with PVP was made and isolated by evaporating a methanolic solution.

- potency by HPLC after drying ([1]; reanalyzed after drying in the TGA at 25° C. or 70° C.): 93%
- potency by HPLC ([1]; sample isolated by evaporating methanol, after accounting for residual solvent): 98%
- temperature at which degradation begins (TGA) [2]: 90 °C
- physical stability [3]: physically stable
Compound: C=CC1=C(C(=O)O)N2C(=O)C(NC(=O)C(=NO)c3csc(N)n3)[C@H]2SC1 (single isomer, unassigned) [Amorphous Cefdinir, 7-[2-(2-aminothiazol-4-yl)-2-hydroxyiminoacetamide]-3-vinyl-3-cephem-4-carboxylic acid (syn isomer)]
